This is an account of results in patent US20230265151A1, “GIP/GLP1 CO-AGONIST COMPOUNDS” (priority 2020, published 2023).

The structures appear in SMILES notation. Where two headings read alike, the source gives them in different places.

Holding throughout (assay type): cell-based
One test addresses T1, hGIPR (Homo sapiens, UniProt P48546).
T1 construct: expressed in transfected cells
T1 sequence (P48546 22-466): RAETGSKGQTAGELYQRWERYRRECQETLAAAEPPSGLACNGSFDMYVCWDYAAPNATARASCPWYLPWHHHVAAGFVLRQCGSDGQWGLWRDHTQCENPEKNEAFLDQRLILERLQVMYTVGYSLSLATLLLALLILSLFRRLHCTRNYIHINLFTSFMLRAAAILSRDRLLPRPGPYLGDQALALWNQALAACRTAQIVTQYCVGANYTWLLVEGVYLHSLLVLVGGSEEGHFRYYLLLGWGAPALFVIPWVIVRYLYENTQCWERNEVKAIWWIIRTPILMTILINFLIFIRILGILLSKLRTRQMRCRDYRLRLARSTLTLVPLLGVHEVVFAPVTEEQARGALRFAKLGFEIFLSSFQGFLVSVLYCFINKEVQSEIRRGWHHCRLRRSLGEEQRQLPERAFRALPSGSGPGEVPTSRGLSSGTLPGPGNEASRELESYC
Description: Functional cAMP formation (HTRF) in HEK-293 clonal cells expressing hGIPR, 0.1% bovine casein, without or with 1.0% human serum albumin. The note with it: for EC50: geometric mean. The method, boiled down: (§1)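 Cells were stimulated with peptide for 30 min at 37° C, then intracellular cAMP was measured by competitive HTRF (665/620 nm ratio) and converted to nM using a cAMP standard curve. Relative EC50 and Emax came from four-parameter logistic fits of percent maximal response against peptide concentration.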
(cAMP levels reflect the balance of adenylyl cyclase and phosphodiesterase activity.)

The target of the next test is T2, hGCGR (Homo sapiens, UniProt P47871).
T2 construct: expressed in transfected cells
T2 sequence (P47871 26-477): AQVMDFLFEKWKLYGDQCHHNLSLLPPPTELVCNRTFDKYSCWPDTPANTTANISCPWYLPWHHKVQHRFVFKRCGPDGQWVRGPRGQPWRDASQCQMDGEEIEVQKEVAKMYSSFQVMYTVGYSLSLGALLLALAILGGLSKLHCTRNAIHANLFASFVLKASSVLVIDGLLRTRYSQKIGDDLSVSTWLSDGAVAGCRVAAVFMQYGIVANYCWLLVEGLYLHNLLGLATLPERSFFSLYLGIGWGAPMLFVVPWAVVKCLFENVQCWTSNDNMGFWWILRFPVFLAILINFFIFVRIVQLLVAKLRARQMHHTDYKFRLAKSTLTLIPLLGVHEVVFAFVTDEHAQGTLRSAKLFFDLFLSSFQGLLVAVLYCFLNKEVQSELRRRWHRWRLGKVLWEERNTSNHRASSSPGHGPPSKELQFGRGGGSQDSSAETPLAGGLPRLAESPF
Description: Functional cAMP formation (HTRF) in HEK-293 clonal cells expressing hGCGR, 0.1% bovine casein, without or with 1.0% human serum albumin. In outline:
as §1

In a further test the target is hGLP-1R (Homo sapiens, UniProt P43220). Description: Functional cAMP formation (HTRF) in HEK-293 clonal cells expressing hGLP-1R, 0.1% bovine casein, without or with 1.0% human serum albumin. Also on record: expressed in transfected cells. The method, boiled down:
as §1

hGLP-1R, sequence (P43220 24-463): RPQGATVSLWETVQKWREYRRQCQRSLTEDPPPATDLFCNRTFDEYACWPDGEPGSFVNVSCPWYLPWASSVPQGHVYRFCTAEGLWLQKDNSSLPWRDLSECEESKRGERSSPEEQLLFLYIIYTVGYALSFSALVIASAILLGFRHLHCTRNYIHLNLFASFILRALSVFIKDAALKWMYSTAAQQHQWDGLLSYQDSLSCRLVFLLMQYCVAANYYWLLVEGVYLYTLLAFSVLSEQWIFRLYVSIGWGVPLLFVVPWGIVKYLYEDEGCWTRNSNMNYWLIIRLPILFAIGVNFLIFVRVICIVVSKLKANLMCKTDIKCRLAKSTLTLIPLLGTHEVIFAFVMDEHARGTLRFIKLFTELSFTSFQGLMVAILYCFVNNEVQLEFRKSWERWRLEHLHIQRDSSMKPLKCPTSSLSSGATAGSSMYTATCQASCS

What is called Emax is the size of the effect at its maximum, as opposed to the concentration needed. The EC50 is the concentration giving half of the maximal effect. For `CC[C@H](C)[C@H](NC(=O)[C@H](CC(C)C)NC(=O)[C@](C)(Cc1ccc(O)cc1)NC(=O)[C@@H](CCC(=O)O)NC(=O)[C@@H](NC(=O)[C@H](Cc1ccccc1)NC(=O)[C@H](CCCCNC(=O)COCCOCCNC(=O)COCCOCCNC(=O)CCCCCCCCCOc1ccc(C(=O)O)cc1)NC(=O)C(C)(C)NC(=O)[C@H](CCC(N)=O)NC(=O)[C@H](C)NC(=O)[C@H](CCCCNC(=O)COCCOCCNC(=O)COCCOCCNC(=O)CCCCCCCCCOc1ccc(C(=O)O)cc1)NC(=O)[C@H](CCCN)NC(=O)[C@H](CC(=O)O)NC(=O)[C@H](CC(C)C)NC(=O)[C@](C)(CC(C)C)NC(=O)[C@@H](NC(=O)C(C)(C)NC(=O)[C@H](Cc1ccc(O)cc1)NC(=O)[C@H](CC(=O)O)NC(=O)[C@H](CO)NC(=O)[C@@H](NC(=O)[C@](C)(Cc1ccccc1F)NC(=O)[C@@H](NC(=O)CNC(=O)[C@H](CCC(=O)O)NC(=O)C(C)(C)NC(=O)[C@@H](N)Cc1ccc(O)cc1)[C@@H](C)O)[C@@H](C)O)[C@@H](C)CC)[C@@H](C)CC)C(=O)N[C@@H](CCC(=O)O)C(=O)NCC(=O)NCC(=O)N1CCC[C@H]1C(=O)N[C@@H](CO)C(=O)N[C@@H](CO)C(=O)NCC(=O)N[C@@H](C)C(=O)N1CCC[C@H]1C(=O)N1CCC[C@H]1C(=O)N1CCC[C@H]1C(=O)N[C@@H](CO)C(N)=O` [Example 393], the Emax was determined as 66.7% at hGIPR (HEK293, read-out: hGIPR Emax, % ± SEM, cAMP, 37° C., 0.1% bovine casein and 1.0% human serum albumin, percent of maximal response to GIP(1-42)NH2); 94.3% on hGIPR (HEK293, read-out: hGIPR Emax, % ± SEM, cAMP, 37° C., 0.1% bovine casein, percent of maximal response to GIP(1-42)NH2, arithmetic mean); 96.8% at hGLP-1R (HEK293, read-out: hGLP-1R Emax, % ± SEM, cAMP, 37° C., 0.1% bovine casein, percent of maximal response to GLP-1(7-36)NH2, arithmetic mean). Besides, the EC50 is 0.0115 nM at hGIPR (hGIPR EC50, nM (SEM, n), cAMP, 37° C., 0.1% bovine casein (no human serum albumin)); > 9950 nM on hGCGR (hGCGR EC50, nM (SEM, n), cAMP, 37° C., 0.1% bovine casein (no human serum albumin), geometric mean); > 9950 nM on hGCGR (hGCGR EC50, nM (SEM, n), cAMP, 37° C., 0.1% bovine casein and 1.0% human serum albumin, geometric mean (SEM, n)); 0.372 nM on hGLP-1R (hGLP-1R EC50, nM (SEM, n), cAMP, 37° C., 0.1% bovine casein (no human serum albumin), geometric mean); 9.18 nM at hGLP-1R (hGLP-1R EC50, nM (SEM, n), cAMP, 37° C., 0.1% bovine casein and 1.0% human serum albumin, geometric mean (SEM, n)).

In the case of `CC[C@H](C)[C@H](NC(=O)[C@H](CC(C)C)NC(=O)[C@](C)(Cc1ccc(O)cc1)NC(=O)[C@@H](CCC(=O)O)NC(=O)[C@@H](NC(=O)[C@H](Cc1ccccc1)NC(=O)[C@H](CCCCNC(=O)COCCOCCNC(=O)COCCOCCNC(=O)CC[C@H](NC(=O)CCCCCCCCCCCCC(=O)O)C(=O)O)NC(=O)C(C)(C)NC(=O)[C@H](CCC(N)=O)NC(=O)[C@H](C)NC(=O)[C@H](CCCCNC(=O)COCCOCCNC(=O)COCCOCCNC(=O)CC[C@H](NC(=O)CCCCCCCCCCCCC(=O)O)C(=O)O)NC(=O)[C@H](CCCN)NC(=O)[C@H](CC(=O)O)NC(=O)[C@H](CC(C)C)NC(=O)[C@](C)(CC(C)C)NC(=O)[C@@H](NC(=O)C(C)(C)NC(=O)[C@H](Cc1ccncc1)NC(=O)[C@H](CC(=O)O)NC(=O)[C@H](CO)NC(=O)[C@@H](NC(=O)[C@](C)(Cc1ccccc1F)NC(=O)[C@@H](NC(=O)CNC(=O)[C@H](CCC(=O)O)NC(=O)C(C)(C)NC(=O)[C@@H](N)Cc1ccc(O)cc1)[C@@H](C)O)[C@@H](C)O)[C@@H](C)CC)[C@@H](C)CC)C(=O)N[C@@H](CCCN)C(=O)NCC(=O)NCC(=O)N1CCC[C@H]1C(=O)N[C@@H](CO)C(=O)N[C@@H](CO)C(=O)NCC(=O)N[C@@H](C)C(=O)N1CCC[C@H]1C(=O)N1CCC[C@H]1C(=O)N1CCC[C@H]1C(=O)N[C@@H](CO)C(N)=O` [Example 406], the Emax stood at 87.3% at hGIPR (HEK293, cAMP, 37° C., 0.1% bovine casein and 1.0% human serum albumin, percent of maximal response to GIP(1-42)NH2, read-out: hGIPR Emax, % ± SEM); 96% at hGLP-1R (HEK293, cAMP, 37° C., 0.1% bovine casein and 1.0% human serum albumin, percent of maximal response to GLP-1(7-36)NH2, read-out: hGLP-1R Emax, % ± SEM); 98.5% on hGLP-1R (HEK293, cAMP, 37° C., 0.1% bovine casein, percent of maximal response to GLP-1(7-36)NH2, arithmetic mean, read-out: hGLP-1R Emax, % ± SEM). In addition, the EC50 is 0.00896 nM at hGIPR (cAMP, 37° C., 0.1% bovine casein (no human serum albumin), read-out: hGIPR EC50, nM (SEM, n)); > 9950 nM on hGCGR (cAMP, 37° C., 0.1% bovine casein (no human serum albumin), geometric mean, read-out: hGCGR EC50, nM (SEM, n)); > 9950 nM on hGCGR (cAMP, 37° C., 0.1% bovine casein and 1.0% human serum albumin, geometric mean (SEM, n), read-out: hGCGR EC50, nM (SEM, n)); 0.351 nM at hGLP-1R (cAMP, 37° C., 0.1% bovine casein (no human serum albumin), geometric mean, read-out: hGLP-1R EC50, nM (SEM, n)).

With `CC[C@H](C)[C@H](NC(=O)[C@H](CC(C)C)NC(=O)[C@](C)(Cc1ccc(O)cc1)NC(=O)[C@@H](CCC(=O)O)NC(=O)[C@@H](NC(=O)[C@H](Cc1ccccc1)NC(=O)[C@H](CCC(=O)O)NC(=O)C(C)(C)NC(=O)[C@H](CCC(N)=O)NC(=O)[C@H](C)NC(=O)[C@H](CCCCNC(=O)COCCOCCNC(=O)COCCOCCNC(=O)CCCCCCCCCCCCC(=O)O)NC(=O)[C@H](CCCN)NC(=O)[C@H](CC(=O)O)NC(=O)[C@H](CC(C)C)NC(=O)[C@](C)(CC(C)C)NC(=O)[C@@H](NC(=O)[C@H](CO)NC(=O)[C@H](Cc1ccncc1)NC(=O)[C@H](CC(=O)O)NC(=O)[C@H](CO)NC(=O)[C@@H](NC(=O)[C@](C)(Cc1ccccc1F)NC(=O)[C@@H](NC(=O)CNC(=O)[C@H](CCC(=O)O)NC(=O)C(C)(C)NC(=O)[C@@H](N)Cc1ccc(O)cc1)[C@@H](C)O)[C@@H](C)O)[C@@H](C)CC)[C@@H](C)CC)C(=O)N[C@@H](CCC(=O)O)C(=O)NCC(=O)NCC(=O)N[C@@H](CCCCNC(=O)COCCOCCNC(=O)COCCOCCNC(=O)CCCCCCCCCCCCC(=O)O)C(=O)N[C@@H](CO)C(=O)N[C@@H](CO)C(=O)NCC(=O)N[C@@H](C)C(=O)N1CCC[C@H]1C(=O)N1CCC[C@H]1C(=O)N1CCC[C@H]1C(=O)N[C@@H](CO)C(N)=O` [Example 9], the EC50 at hGIPR (0.1% bovine casein and 1.0% human serum albumin, 37° C., read-out: hGIPR EC50, nM (SEM, n)) was 0.211 nM; on hGIPR (cAMP, incubated at 37° C., 0.1% bovine casein (no human serum albumin), read-out: hGIPR EC50, nM (SEM, n)) it was 0.0102 nM; at hGCGR (0.1% bovine casein and 1.0% human serum albumin, 37° C., geometric mean, read-out: hGCGR EC50, nM (SEM, n)) it was > 9950 nM; on hGCGR (cAMP, incubated at 37° C., 0.1% bovine casein (no human serum albumin), geometric mean, read-out: hGCGR EC50, nM (SEM, n)), > 9950 nM; on hGLP-1R (0.1% bovine casein and 1.0% human serum albumin, 37° C., geometric mean, read-out: hGLP-1R EC50, nM (SEM, n)), 8.82 nM. Moreover, the Emax was found to be 91.6 ± 4.63% on hGIPR (HEK293, 0.1% bovine casein and 1.0% human serum albumin, 37° C., percent of maximal response to GIP(1-42)NH2, read-out: hGIPR Emax, % ± SEM); 93.6 ± 2.36% on hGIPR (HEK293, percent of maximal response to GIP(1-42)NH2, 37° C., 0.1% bovine casein, arithmetic mean, read-out: hGIPR Emax, % ± SEM).

As for `CC[C@H](C)[C@H](NC(=O)[C@H](CC(C)C)NC(=O)[C@](C)(Cc1ccc(O)cc1)NC(=O)[C@H](CCCCNC(=O)COCCOCCNC(=O)COCCOCCNC(=O)CC[C@H](NC(=O)CCCCCCCCCCCCC(=O)O)C(=O)O)NC(=O)[C@@H](NC(=O)[C@H](Cc1ccccc1)NC(=O)[C@H](CCC(=O)O)NC(=O)C(C)(C)NC(=O)[C@H](CCC(N)=O)NC(=O)[C@H](C)NC(=O)[C@H](CCCCNC(=O)COCCOCCNC(=O)COCCOCCNC(=O)CC[C@H](NC(=O)CCCCCCCCCCCCC(=O)O)C(=O)O)NC(=O)[C@H](CCCN)NC(=O)[C@H](CC(=O)O)NC(=O)[C@H](CC(C)C)NC(=O)[C@](C)(CC(C)C)NC(=O)[C@@H](NC(=O)[C@H](CO)NC(=O)[C@@H](NC(=O)[C@H](CC(=O)O)NC(=O)[C@H](CO)NC(=O)[C@@H](NC(=O)[C@](C)(Cc1ccccc1F)NC(=O)[C@@H](NC(=O)CNC(=O)[C@H](CCC(=O)O)NC(=O)C(C)(C)NC(=O)[C@@H](N)Cc1ccc(O)cc1)[C@@H](C)O)[C@@H](C)O)C(C)C)[C@@H](C)CC)[C@@H](C)CC)C(=O)N[C@@H](CCC(=O)O)C(=O)NCC(=O)NCC(=O)N1CCC[C@H]1C(=O)N[C@@H](CO)C(=O)N[C@@H](CO)C(=O)NCC(=O)N[C@@H](C)C(=O)N1CCC[C@H]1C(=O)N1CCC[C@H]1C(=O)N1CCC[C@H]1C(=O)N[C@@H](CO)C(N)=O` [Example 114], the Emax on hGIPR (HEK293, read-out: hGIPR Emax, % ± SEM, percent of maximal response to GIP(1-42)NH2, 37° C., 0.1% bovine casein, arithmetic mean) was found to be 93.8%; at hGLP-1R (HEK293, read-out: hGLP-1R Emax, % ± SEM, percent of maximal response to GLP-1(7-36)NH2, 37° C., 0.1% bovine casein, arithmetic mean), 91.7%. The EC50 is > 9950 nM at hGCGR (hGCGR EC50, nM (SEM, n), cAMP, incubated at 37° C., 0.1% bovine casein (no human serum albumin), geometric mean) and 0.176 nM at hGLP-1R (hGLP-1R EC50, nM (SEM, n), cAMP, incubated at 37° C., 0.1% bovine casein (no human serum albumin), geometric mean).
